Measurements taken from ChEMBL document CHEMBL3045439, “Isoforms of the heteropteran Nezara viridula ecdysone receptor: protein characterisation, RH5992 insecticide binding and homology modelling” (Pest Manag Sci, 2011).

Assays:
Type in all cases: protein-complex assay
[1] = biological target: T1, Ecdysone receptor (Nezara viridula, UniProt E5L6Y0+E5L6Y1); test: Displacement of [3H]PonA from recombinant Nezara viridula EcR11
T1 sequence (E5L6Y1 whole entry): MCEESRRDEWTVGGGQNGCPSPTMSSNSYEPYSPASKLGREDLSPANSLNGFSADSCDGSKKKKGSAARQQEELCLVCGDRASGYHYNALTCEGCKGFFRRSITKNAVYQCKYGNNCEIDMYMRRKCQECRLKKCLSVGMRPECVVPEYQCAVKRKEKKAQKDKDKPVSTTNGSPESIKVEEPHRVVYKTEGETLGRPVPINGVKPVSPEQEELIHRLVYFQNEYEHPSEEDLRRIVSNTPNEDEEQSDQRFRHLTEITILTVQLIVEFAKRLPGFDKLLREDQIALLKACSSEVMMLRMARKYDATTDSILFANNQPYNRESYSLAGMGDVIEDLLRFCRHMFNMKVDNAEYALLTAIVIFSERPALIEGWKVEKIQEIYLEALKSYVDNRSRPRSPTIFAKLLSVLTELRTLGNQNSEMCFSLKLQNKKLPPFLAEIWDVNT
T1 sequence (E5L6Y0 whole entry): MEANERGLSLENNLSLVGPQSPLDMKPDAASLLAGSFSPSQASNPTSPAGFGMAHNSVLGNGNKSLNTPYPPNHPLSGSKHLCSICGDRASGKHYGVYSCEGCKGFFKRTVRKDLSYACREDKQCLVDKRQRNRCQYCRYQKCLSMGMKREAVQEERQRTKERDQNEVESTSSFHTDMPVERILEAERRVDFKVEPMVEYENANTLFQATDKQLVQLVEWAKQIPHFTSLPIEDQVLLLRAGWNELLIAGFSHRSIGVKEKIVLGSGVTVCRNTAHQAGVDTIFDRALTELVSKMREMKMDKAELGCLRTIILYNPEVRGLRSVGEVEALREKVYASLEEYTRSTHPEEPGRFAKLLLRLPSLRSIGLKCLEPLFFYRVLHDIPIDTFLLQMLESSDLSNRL

[2] = biological target: T1, Ecdysone receptor; test: Displacement of [3H]PonA from recombinant Nezara viridula EcR10
[3] = biological target: T1, Ecdysone receptor; test: Binding affinity to Nezara viridula EcR
[4] = biological target: T2, Ecdysone receptor (Drosophila melanogaster, UniProt P20153+P34021); test: Binding affinity to Drosophila melanogaster EcR
T2 sequence (P34021 whole entry): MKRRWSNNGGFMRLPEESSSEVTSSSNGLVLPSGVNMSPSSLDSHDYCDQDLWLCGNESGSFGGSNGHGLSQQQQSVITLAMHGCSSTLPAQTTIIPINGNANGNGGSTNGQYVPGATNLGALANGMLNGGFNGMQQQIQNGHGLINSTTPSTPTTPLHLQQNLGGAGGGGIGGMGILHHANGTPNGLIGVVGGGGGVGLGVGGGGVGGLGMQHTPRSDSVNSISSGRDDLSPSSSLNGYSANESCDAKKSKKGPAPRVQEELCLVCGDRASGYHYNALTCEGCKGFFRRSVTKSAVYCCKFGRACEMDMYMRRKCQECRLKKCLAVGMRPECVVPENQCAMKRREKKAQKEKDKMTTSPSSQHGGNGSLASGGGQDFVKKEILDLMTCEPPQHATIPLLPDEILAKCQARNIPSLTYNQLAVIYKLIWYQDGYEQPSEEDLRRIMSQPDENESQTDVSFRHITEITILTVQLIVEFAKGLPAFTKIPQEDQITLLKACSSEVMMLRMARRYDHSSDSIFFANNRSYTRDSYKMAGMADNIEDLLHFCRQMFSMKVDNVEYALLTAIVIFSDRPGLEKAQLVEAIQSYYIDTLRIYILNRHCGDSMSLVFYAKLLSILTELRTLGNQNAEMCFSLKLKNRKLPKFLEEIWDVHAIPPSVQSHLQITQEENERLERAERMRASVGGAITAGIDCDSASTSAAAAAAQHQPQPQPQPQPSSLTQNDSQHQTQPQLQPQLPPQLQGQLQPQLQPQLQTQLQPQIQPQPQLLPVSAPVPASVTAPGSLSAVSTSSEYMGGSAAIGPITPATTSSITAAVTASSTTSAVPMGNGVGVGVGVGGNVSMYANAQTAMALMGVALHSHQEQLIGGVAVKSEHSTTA
T2 sequence (P20153 whole entry): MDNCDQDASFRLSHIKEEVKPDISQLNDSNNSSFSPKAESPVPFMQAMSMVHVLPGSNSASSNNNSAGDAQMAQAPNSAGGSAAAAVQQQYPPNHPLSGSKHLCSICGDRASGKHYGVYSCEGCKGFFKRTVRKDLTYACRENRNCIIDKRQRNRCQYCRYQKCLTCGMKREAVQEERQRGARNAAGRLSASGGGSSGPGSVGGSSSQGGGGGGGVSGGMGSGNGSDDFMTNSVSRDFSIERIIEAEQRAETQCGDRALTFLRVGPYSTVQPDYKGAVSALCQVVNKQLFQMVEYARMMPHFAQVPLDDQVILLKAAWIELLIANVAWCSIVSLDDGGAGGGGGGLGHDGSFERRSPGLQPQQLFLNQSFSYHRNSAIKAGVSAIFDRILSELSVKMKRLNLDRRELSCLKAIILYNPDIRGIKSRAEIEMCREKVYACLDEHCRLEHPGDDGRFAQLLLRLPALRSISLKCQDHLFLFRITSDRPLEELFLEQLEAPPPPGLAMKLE

[5] = biological target: T3, Ecdysone receptor (Spodoptera frugiperda, UniProt Q8MWR1+Q8MWR2); test: Binding affinity to Spodoptera frugiperda (fall armyworm) EcR
T3 sequence (Q8MWR2 whole entry): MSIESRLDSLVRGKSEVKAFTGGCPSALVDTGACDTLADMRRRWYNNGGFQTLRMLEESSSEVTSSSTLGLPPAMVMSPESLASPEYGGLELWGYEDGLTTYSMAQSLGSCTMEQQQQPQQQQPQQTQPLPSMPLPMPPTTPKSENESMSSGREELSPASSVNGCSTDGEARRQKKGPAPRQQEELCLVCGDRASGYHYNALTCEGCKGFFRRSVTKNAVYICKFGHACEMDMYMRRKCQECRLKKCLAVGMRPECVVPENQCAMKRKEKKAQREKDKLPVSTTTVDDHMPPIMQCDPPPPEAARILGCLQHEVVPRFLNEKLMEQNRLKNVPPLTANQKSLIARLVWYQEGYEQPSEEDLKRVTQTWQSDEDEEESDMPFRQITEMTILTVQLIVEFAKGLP
T3 sequence (Q8MWR1 whole entry): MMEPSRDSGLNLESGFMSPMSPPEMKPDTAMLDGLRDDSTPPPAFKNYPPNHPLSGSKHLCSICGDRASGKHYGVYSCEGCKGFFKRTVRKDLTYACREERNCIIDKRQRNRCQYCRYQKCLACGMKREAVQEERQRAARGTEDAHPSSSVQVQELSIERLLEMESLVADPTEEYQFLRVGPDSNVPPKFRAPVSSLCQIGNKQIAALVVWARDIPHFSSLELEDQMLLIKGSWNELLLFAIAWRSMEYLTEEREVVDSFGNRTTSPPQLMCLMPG

[6] = biological target: T4, Ecdysone receptor (Leptinotarsa decemlineata, UniProt Q4W6C8+Q4W6D0); test: Binding affinity to Leptinotarsa decemlineata EcR
T4 sequence (Q4W6D0 whole entry): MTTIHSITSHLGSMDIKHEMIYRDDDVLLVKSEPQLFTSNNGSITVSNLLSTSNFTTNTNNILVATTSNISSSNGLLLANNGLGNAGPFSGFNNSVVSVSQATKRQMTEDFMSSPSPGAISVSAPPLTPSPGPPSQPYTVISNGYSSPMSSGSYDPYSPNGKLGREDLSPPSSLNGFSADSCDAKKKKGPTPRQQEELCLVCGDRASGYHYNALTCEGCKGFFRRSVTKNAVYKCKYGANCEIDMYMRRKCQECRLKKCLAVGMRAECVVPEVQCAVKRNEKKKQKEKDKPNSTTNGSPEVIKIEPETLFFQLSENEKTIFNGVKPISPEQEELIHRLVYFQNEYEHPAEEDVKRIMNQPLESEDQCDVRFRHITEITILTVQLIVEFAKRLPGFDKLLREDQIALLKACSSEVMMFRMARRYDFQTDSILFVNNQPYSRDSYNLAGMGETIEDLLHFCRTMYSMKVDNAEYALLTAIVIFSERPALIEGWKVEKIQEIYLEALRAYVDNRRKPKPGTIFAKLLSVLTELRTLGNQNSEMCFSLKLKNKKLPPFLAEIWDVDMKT
T4 sequence (Q4W6C8 whole entry): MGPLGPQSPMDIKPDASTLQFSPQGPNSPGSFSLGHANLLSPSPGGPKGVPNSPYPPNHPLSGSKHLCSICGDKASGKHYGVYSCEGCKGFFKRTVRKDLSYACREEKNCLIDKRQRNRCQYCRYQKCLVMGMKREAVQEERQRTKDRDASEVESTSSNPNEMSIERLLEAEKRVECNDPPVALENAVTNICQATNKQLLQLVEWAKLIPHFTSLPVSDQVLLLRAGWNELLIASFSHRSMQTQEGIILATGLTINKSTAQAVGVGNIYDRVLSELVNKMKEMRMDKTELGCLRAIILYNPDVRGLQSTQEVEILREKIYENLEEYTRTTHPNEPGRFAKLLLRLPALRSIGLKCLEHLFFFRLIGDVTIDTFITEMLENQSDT

SMILES	IC50 [1] [µM]	Ki [1] [µM]	IC50 [2] [µM]	Ki [2] [µM]	IC50 [3] [µM]	IC50 [4] [µM]	IC50 [5] [µM]	IC50 [6] [µM]
C[C@H]([C@H](O)CCC(C)(C)O)[C@H]1CC[C@@]2(O)C3=CC(=O)[C@@H]4C[C@@H](O)[C@@H](O)C[C@]4(C)[C@H]3CC[C@]12C [ECDYSONE]	60	51.1	60	50.4				
CC(CO)CC[C@@H](O)[C@](C)(O)[C@H]1CC[C@@]2(O)C3=CC(=O)[C@@H]4C[C@@H](O)[C@@H](O)C[C@]4(C)[C@H]3CC[C@]12C (stereo not given in full) [INOKOSTERONE]	7	6	8	6.7				
C[C@H](C[C@@H](O)[C@](C)(O)[C@H]1CC[C@@]2(O)C3=CC(=O)[C@@H]4C[C@@H](O)[C@@H](O)C[C@]4(C)[C@H]3CC[C@]12C)C(C)(C)O [MAKISTERONE A]					1.38	1.38	0.389	1.74
CC(C)CC[C@@H](O)[C@](C)(O)[C@H]1CC[C@@]2(O)C3=CC(=O)[C@]4(O)C[C@@H](O)[C@@H](O)C[C@]4(C)[C@H]3[C@H](O)C[C@]12C [MURISTERONE A]	0.15	0.1	0.13	0.1				
CC(C)CC[C@@H](O)[C@](C)(O)[C@H]1CC[C@@]2(O)C3=CC(=O)[C@@H]4C[C@@H](O)[C@@H](O)C[C@]4(C)[C@H]3CC[C@]12C [PONASTERONE A]	0.25	0.2	0.28	0.2				
